Results from the supplement of paper PMC13380429.

How the values were obtained:
Conditions in all cases: 72 h
U2OS [1] = assay: drug sensitivity score (DSS) for viability; higher = more toxic; extreme values may be limits of the assay
Caco-2 [2] = assay: as above
HepG2 [3] = assay: as above
Vero E6 [4] = assay: as above
Calu-3 [5] = assay: as above
U2OS [6] = assay: relative viability EC50 (midpoint between 100% and the lowest measured viability); higher = less toxic
Caco-2 [7] = assay: as above
HepG2 [8] = assay: as above
Vero E6 [9] = assay: as above
Calu-3 [10] = assay: as above
U2OS [11] = assay: cell viability relative to DMSO; higher = less toxic
Caco-2 [12] = assay: as above
HepG2 [13] = assay: as above
Vero E6 [14] = assay: as above
Calu-3 [15] = assay: as above

Structure (SMILES) | drug sensitivity score (U2OS [1]) | drug sensitivity score (Caco-2 [2]) | drug sensitivity score (HepG2 [3]) | drug sensitivity score (Vero E6 [4]) | drug sensitivity score (Calu-3 [5]) | relative viability EC50 (U2OS [6]) | relative viability EC50 (Caco-2 [7]) | relative viability EC50 (HepG2 [8]) | relative viability EC50 (Vero E6 [9]) | relative viability EC50 (Calu-3 [10]) | cell viability (U2OS [11]; 1 nM) | cell viability (U2OS [11]; 10 nM) | cell viability (U2OS [11]; 100 nM) | cell viability (U2OS [11]; 1000 nM) | cell viability (U2OS [11]; 10000 nM) | cell viability (Caco-2 [12]; 1 nM) | cell viability (Caco-2 [12]; 10 nM) | cell viability (Caco-2 [12]; 100 nM) | cell viability (Caco-2 [12]; 1000 nM) | cell viability (Caco-2 [12]; 10000 nM) | cell viability (HepG2 [13]; 1 nM) | cell viability (HepG2 [13]; 10 nM) | cell viability (HepG2 [13]; 100 nM) | cell viability (HepG2 [13]; 1000 nM) | cell viability (HepG2 [13]; 10000 nM) | cell viability (Vero E6 [14]; 1 nM) | cell viability (Vero E6 [14]; 10 nM) | cell viability (Vero E6 [14]; 100 nM) | cell viability (Vero E6 [14]; 1000 nM) | cell viability (Vero E6 [14]; 10000 nM) | cell viability (Calu-3 [15]; 1 nM) | cell viability (Calu-3 [15]; 10 nM) | cell viability (Calu-3 [15]; 100 nM) | cell viability (Calu-3 [15]; 1000 nM) | cell viability (Calu-3 [15]; 10000 nM)
O=C(Cn1ccnc1[N+](=O)[O-])NCCO [etanidazole] | 0 | 0 | 0 | 0 | 0 | > 10 µM | > 10 µM | > 10 µM | > 10 µM | > 10 µM | 101% | 97.1% | 102% | 99.1% | 102% | 100% | 94.1% | 95.9% | 91.5% | 92.7% | 98.7% | 106% | 92.3% | 101% | 88.8% | 103% | 104% | 106% | 101% | 97.7% | 98.8% | 92.4% | 94% | 98.1% | 107%
CC[C@@H](CO)NCCN[C@@H](CC)CO [ethambutol] | 0 | 0 | 0 | 0 | 0 | > 10 µM | > 10 µM | > 10 µM | > 10 µM | > 10 µM | 103% | 98% | 103% | 96.5% | 99.3% | 99.1% | 92.3% | 97.6% | 102% | 104% | 93.3% | 108% | 90.3% | 95.2% | 98.7% | 92.3% | 98.2% | 90.8% | 99.1% | 102% | 98.9% | 88.7% | 96% | 90.4% | 96.7%
CCNCC(O)c1cccc(O)c1 (stereo not given) [etilefrine] | 0 | 0 | 0 | 0 | 0 | > 10 µM | > 10 µM | > 10 µM | > 10 µM | > 10 µM | 98.9% | 103% | 98.1% | 98.9% | 95.7% | 92.1% | 105% | 93% | 99.7% | 104% | 95.2% | 87.3% | 89% | 93% | 104% | 97.1% | 93.6% | 98.3% | 96.4% | 99.6% | 99.2% | 102% | 98.9% | 102% | 104%
CCOC(=O)[C@@]1(CCCCCCOc2ccc(Cl)cc2)CO1 [etomoxir] | 0 | 0.4 | 0 | 0 | 0 | > 10 µM | > 10 µM | > 10 µM | > 10 µM | > 10 µM | 105% | 102% | 104% | 103% | 97.7% | 92.6% | 97.6% | 98.2% | 98% | 85.6% | 115% | 106% | 101% | 108% | 91.7% | 113% | 106% | 110% | 104% | 98.1% | 106% | 114% | 98.2% | 117% | 110%
COCCCC/C(=N\OCCN)c1ccc(C(F)(F)F)cc1 [fluvoxamine] | 0 | 4 | 0 | 0 | 0 | > 10 µM | > 10 µM | > 10 µM | > 10 µM | > 10 µM | 104% | 97.3% | 98% | 96.4% | 98.5% | 124% | 109% | 84.3% | 80.6% | 94.1% | 99.3% | 93.5% | 100% | 105% | 100% | 91.6% | 103% | 98.1% | 101% | 88% | 102% | 109% | 95.6% | 96.5% | 93.7%
C[C@@H](O[C@H]1OCCN(Cc2nn(P(=O)(O)O)c(=O)[nH]2)[C@H]1c1ccc(F)cc1)c1cc(C(F)(F)F)cc(C(F)(F)F)c1 [fosaprepitant-dimeglumine] | 0.1 | 0 | 0.1 | 0 | 0 | > 10 µM | > 10 µM | > 10 µM | > 10 µM | > 10 µM | 98.6% | 103% | 95.4% | 96.1% | 86.4% | 98.4% | 95.1% | 93.2% | 102% | 90.8% | 93.6% | 93.4% | 88.7% | 91.9% | 89.6% | 92.5% | 97.3% | 97.9% | 99.6% | 99.7% | 99.7% | 93.8% | 102% | 93.8% | 108%
CC(OC(=O)NCC1(CC(=O)O)CCCCC1)OC(=O)C(C)C (stereo not given) [gabapentin-enacarbil] | 0 | 0 | 0 | 0 | 0 | > 10 µM | > 10 µM | > 10 µM | > 10 µM | > 10 µM | 101% | 96.5% | 102% | 94% | 102% | 105% | 87.2% | 106% | 110% | 104% | 101% | 93.8% | 94.7% | 90.1% | 89.4% | 83.4% | 97.8% | 84.2% | 107% | 106% | 103% | 96.3% | 106% | 104% | 89%
Oc1noc2c1CCNC2 [gaboxadol] | 0 | 0 | 0 | 0 | 0 | > 10 µM | > 10 µM | > 10 µM | > 10 µM | > 10 µM | 102% | 100% | 94.3% | 98.3% | 94.2% | 92.6% | 99% | 91.6% | 104% | 95.3% | 105% | 101% | 88.2% | 101% | 98.1% | 96.6% | 95.8% | 96.2% | 94.6% | 106% | 99.7% | 91.4% | 103% | 103% | 99.4%
C[C@H](N)Cc1cccc(O)c1 [gepefrine] | 0 | 0 | 0 | 0 | 0 | > 10 µM | > 10 µM | > 10 µM | > 10 µM | > 10 µM | 88% | 93.9% | 90.3% | 95% | 103% | 91.3% | 104% | 88% | 99.1% | 111% | 103% | 97.2% | 96.8% | 104% | 109% | 99.7% | 96% | 98.1% | 101% | 111% | 93.4% | 100% | 102% | 99.7% | 88.7%
NNc1nncc2ccccc12 [hydralazine] | 0 | 0 | 0 | 0 | 2.2 | > 10 µM | > 10 µM | > 10 µM | > 10 µM | > 10 µM | 98.4% | 102% | 99.4% | 101% | 95.8% | 104% | 105% | 91.4% | 108% | 88.3% | 98.4% | 106% | 128% | 98.5% | 114% | 98.7% | 101% | 105% | 105% | 99.3% | 95% | 102% | 89% | 85.3% | 85%
CCCCC(=O)O[C@]1(C(=O)CO)CC[C@H]2[C@@H]3CCC4=CC(=O)CC[C@]4(C)[C@H]3[C@@H](O)C[C@@]21C [hydrocortisone-valerate] | 0 | 0 | 0 | 0 | 0 | > 10 µM | > 10 µM | > 10 µM | > 10 µM | > 10 µM | 95.5% | 97.1% | 92.5% | 100% | 93.2% | 103% | 99% | 88% | 109% | 99.3% | 103% | 97% | 101% | 96.5% | 103% | 107% | 105% | 101% | 98.5% | 101% | 87.3% | 97.1% | 86.5% | 95.9% | 103%
